Reference: patent US20250179194A1, “COMPOSITIONS AND METHODS FOR IMMUNOTHERAPY TARGETING FLT3, PD-1, AND/OR PD-L1” (Cytoimmune Therapeutics, Inc., priority 2018, published 2025)

Assays:
[1] = test system: surface FLT3 expression in MOLM-13, U937, THP-1, MV4-11, and EOL-1 AML cell lines; test: Surface FLT3 expression in AML cell lines after FLT3 inhibitor treatment; assay type: cell-based, human; conditions: 10 μM, 48 hours
[2] = test system: FLT3 surface density expression on AML blasts; test: Surface FLT3 expression by flow cytometry on AML patient blasts; assay type: cell-based, human; conditions: 48 hours, peripheral blood samples
Protocol: FIG. 11 depicts the quantification of FLT3 surface density expression by flow cytometry on AML blasts before and after being treated with Midostaurin for 48 hours.
Further experiments were conducted to determine whether FLT3 expression was increased upon administration of an FLT3 inhibitor. […] FIG. 11 depicts the detection of surface FLT3 expression by flow cytometry in peripheral blood samples of patients who were treated with Midostaurin for 48 hours.

Compound | FLT3 surface expression in AML cell lines [1] | FLT3 surface expression on AML patient blasts [2]
CO[C@@H]1[C@H](N(C)C(=O)c2ccccc2)C[C@H]2O[C@]1(C)n1c3ccccc3c3c4c(c5c6ccccc6n2c5c31)C(=O)NC4 [Midostaurin] | upregulated | upregulated
Dovitinib [Dovitinib (TKI-258)] | upregulated | 
CCCNc1nc(Nc2ccc(C#N)cc2)ncc1C#CCCCNC(=O)[C@H](C)N(C)C(=O)/C=C/CN(C)C [FF-10101] | upregulated | 
